According to PubChem BioAssay AID1996:
In brackets after ≈: the same amount, converted by molar mass.

Details: buffer; pH 7.4; 200.0 µM
With O=c1cc(-c2ccccc2)nc(/C=C/c2ccccc2)[nH]1 the solubility kinetic was 0.0004 mg/mL (≈ 1.46 µM). COc1ccc(CNc2ncccc2[N+](=O)[O-])cc1 gave a solubility kinetic of 0.017 mg/mL (≈ 65.6 µM). With COc1cccc(N2CCN(Cc3ccco3)CC2)c1 the solubility kinetic was 0.0308 mg/mL (≈ 113 µM). In the case of COc1ccc(/C=C2\SC(=N)N(c3ccc(F)cc3)C2=O)cc1, the solubility kinetic is reported as < 0.0004 mg/mL. With CC(C)Oc1ccc(C2CC(=O)N(C)C2=O)cc1 (stereo not given) the solubility kinetic was > 0.0371 mg/mL. With COc1ccccc1CNC1CCN(Cc2ccccc2)CC1 the solubility kinetic was > 0.0466 mg/mL. For CC(=O)c1c(C(C)=O)c(C)n(-c2cccc3cccnc23)c1C, the solubility kinetic was > 0.046 mg/mL. Compound CC(C)N1C(=O)c2ccccc2C1C(=O)NCCc1ccccc1 (stereo not given) has a solubility kinetic of 0.048 mg/mL (≈ 149 µM). With COc1ccc(CC(=O)Nc2nc(C(C)(C)C)cs2)cc1 the solubility kinetic was 0.0021 mg/mL (≈ 6.9 µM). In the case of COc1cc2c(cc1OC)CN(CC(=O)Nc1cccc([N+](=O)[O-])c1)CC2, the solubility kinetic is reported as 0.0149 mg/mL (≈ 40.1 µM). In the case of Cc1ccccc1NC(=O)COC(=O)c1cc[n+]([O-])cc1, the solubility kinetic is reported as > 0.0429 mg/mL. In the case of CC(C)Sc1cc(Cl)nc(NC(=O)Nc2ccccc2)n1, the solubility kinetic is reported as 0.0004 mg/mL (≈ 1.24 µM). With Cc1ccc(NC(=O)Cc2nc(COC(=O)c3c(F)cccc3Cl)cs2)cc1 the solubility kinetic was 0.0075 mg/mL (≈ 17.9 µM). Fc1ccc(SCCc2ccccn2)cc1 gave a solubility kinetic of 0.0071 mg/mL (≈ 30.4 µM). For Cc1ccc(C(=O)N2CCN(c3ccc([N+](=O)[O-])cc3)CC2)o1, the solubility kinetic was 0.0402 mg/mL (≈ 127 µM). For Cc1ccc(C)c(NC(=O)C2C3C=CC(O3)C2C(=O)O)c1 (stereo not given), the solubility kinetic was > 0.0431 mg/mL. In the case of Cc1ccc(N2CC(C(=O)NC3CC3)CC2=O)cc1Cl (stereo not given), the solubility kinetic is reported as > 0.0439 mg/mL. In the case of N#CCc1nc(-c2cc3ccccc3oc2=O)cs1, the solubility kinetic is reported as 0.0054 mg/mL (≈ 20.1 µM). Compound O=C(c1cccs1)N1CCN(c2ccc([N+](=O)[O-])cc2F)CC1 has a solubility kinetic of 0.0047 mg/mL (≈ 14 µM). In the case of Cc1ccc(C(=O)OCC(=O)NC(C)C2CC3CCC2C3)cc1N (stereo not given), the solubility kinetic is reported as > 0.0496 mg/mL. Nc1nccc(/C=C/c2c(Cl)cccc2Cl)n1 gave a solubility kinetic of 0.0019 mg/mL (≈ 7.14 µM). For CC(C)(C)NC(=O)C1CCC(CNc2c(N3CCCCC3)c(=O)c2=O)CC1 (stereo not given), the solubility kinetic was > 0.0563 mg/mL. O=C(COc1ccc(Cl)c2cccnc12)N1CCOCC1 gave a solubility kinetic of 0.0425 mg/mL (≈ 139 µM). Work on Cc1cc(C(=O)CN2C(=O)NC3(CCCCC3)C2=O)c(C)n1C yielded a solubility kinetic of 0.019 mg/mL (≈ 59.9 µM). COc1cc([N+](=O)[O-])ccc1NC(=O)Nc1cnccn1 showed a solubility kinetic of 0.0008 mg/mL (≈ 2.77 µM). In the case of Cc1cc(C(=O)OCC(=O)N(C)c2ccccc2)c(C)o1, the solubility kinetic is reported as > 0.0431 mg/mL. Compound COc1ccc(NC(=O)c2ccc(S(=O)(=O)N3CC(C)OC(C)C3)cc2)cc1 (stereo not given) has a solubility kinetic of 0.0078 mg/mL (≈ 19.3 µM). In the case of O=C(O)[C@H]1Cc2ccccc2CN1S(=O)(=O)c1ccc(F)cc1, the solubility kinetic is reported as > 0.0503 mg/mL. Compound CCCCCc1ccc(CC(=O)N2CCOCC2)cc1 has a solubility kinetic of 0.0386 mg/mL (≈ 140 µM). Compound CC(Sc1nc2sccc2c(=O)n1-c1ccccc1)C(N)=O (stereo not given) has a solubility kinetic of 0.0435 mg/mL (≈ 131 µM). CC(=O)c1cccn1S(=O)(=O)c1ccccc1 showed a solubility kinetic of 0.0369 mg/mL (≈ 148 µM). In the case of Cc1ccc(NC(=O)C(C)Sc2nnc3ccccn23)cc1 (stereo not given), the solubility kinetic is reported as > 0.0469 mg/mL. For Cc1nc(NC(=O)c2ccco2)sc1C(=O)O, the solubility kinetic was > 0.0378 mg/mL. For CC(OC(=O)c1ccco1)C(=O)Nc1nc(-c2ccccc2)cs1 (stereo not given), the solubility kinetic was 0.0045 mg/mL (≈ 13.1 µM). In the case of Cc1ccc(S(=O)(=O)NCC2(c3ccccc3)CCOCC2)cc1, the solubility kinetic is reported as < 0.0007 mg/mL. Work on CN(C(=S)NC(=O)c1ccc(F)cc1)C1CCCCC1 yielded a solubility kinetic of 0.0088 mg/mL (≈ 29.9 µM). COc1cc(Br)c(CN2CCCN(C)CC2)cc1OC showed a solubility kinetic of 0.0442 mg/mL (≈ 129 µM). For O=C(CCSCc1ccccc1F)NCc1cccs1, the solubility kinetic was > 0.0464 mg/mL. Compound Cc1ccc(C(=O)Nc2ccc(CN3CCS(=O)(=O)CC3)cc2)cc1C has a solubility kinetic of 0.0427 mg/mL (≈ 115 µM). C=CCN(Cc1nc(-c2ccccc2)no1)C(=O)c1ccc2c(c1)OCO2 showed a solubility kinetic of 0.0211 mg/mL (≈ 58.1 µM). With O=C(O)c1ccc(Cl)c(S(=O)(=O)N2CCCC2)c1 the solubility kinetic was > 0.0435 mg/mL. In the case of O=C(c1cccnc1)N1c2ccccc2Sc2ccccc21, the solubility kinetic is reported as 0.0431 mg/mL (≈ 142 µM). In the case of O=C(Nc1ncccn1)c1ccc(Cl)c([N+](=O)[O-])c1, the solubility kinetic is reported as > 0.0418 mg/mL. COC(=O)c1cnc(N2CCOCC2)nc1C(F)(F)F showed a solubility kinetic of 0.0353 mg/mL (≈ 121 µM). CC(Nc1nc(N2CCOCC2)nc2ccccc12)c1ccccc1 (stereo not given) gave a solubility kinetic of 0.0068 mg/mL (≈ 20.3 µM). Compound COc1ccc(NC2c3ccccc3C(=O)N2c2ccccn2)cc1 (stereo not given) has a solubility kinetic of 0.0341 mg/mL (≈ 103 µM). COc1cccc(C2CCCCN(C)C2=O)c1 (stereo not given) gave a solubility kinetic of 0.0327 mg/mL (≈ 140 µM). Work on O=c1nc(-c2ccccc2)c2cc(Br)ccc2[nH]1 yielded a solubility kinetic of 0.0018 mg/mL (≈ 5.98 µM). In the case of COc1cccc(NC(=O)Cn2cc(C=O)c3ccccc32)c1, the solubility kinetic is reported as 0.0005 mg/mL (≈ 1.62 µM). For COc1ccc(CNC(=O)c2cc3ccccc3oc2=O)cc1, the solubility kinetic was < 0.0007 mg/mL. For COc1ccc(/C=N/NC(N)=S)cc1, the solubility kinetic was > 0.0314 mg/mL. For COC(=O)/C(C#N)=C\c1c(OC)[nH]c2ccccc12, the solubility kinetic was 0.0011 mg/mL (≈ 4.29 µM). CC(C)c1ccccc1NC(=O)Nc1ccc(F)cc1F showed a solubility kinetic of 0.0027 mg/mL (≈ 9.3 µM). For COc1ccc(C2C(C(C)=O)=C(O)C(=O)N2c2ccc(O)cc2)cc1 (stereo not given), the solubility kinetic was > 0.0509 mg/mL. For O=C(CSCc1ccc(Cl)cc1Cl)Nc1ccc(O)cc1C(=O)O, the solubility kinetic was > 0.0579 mg/mL. Compound Cl.Nc1cc(Cl)ccc1N1CCCC1 has a solubility kinetic of 0.0106 mg/mL. For N#C/C=C/N1CCN(C(=O)c2ccco2)CC1, the solubility kinetic was > 0.0347 mg/mL. CCOc1ccccc1NC(=O)CN1CCc2ccccc2C1 showed a solubility kinetic of 0.0019 mg/mL (≈ 6.12 µM). Compound COc1ccccc1C(=O)Nc1ccccc1N1CCCCC1 has a solubility kinetic of 0.001 mg/mL (≈ 3.22 µM). Compound Cc1ccc(NC(=O)CCC(=O)c2cccs2)c(Br)c1 has a solubility kinetic of 0.0086 mg/mL (≈ 24.4 µM).
